Measured values as given in US20170008888A1 (KYORIN PHARMACEUTICAL CO., LTD., priority 2014, published 2017).
Where two headings read alike, the source gives them in different places.

Columns and labels:
Type in all cases: binding
ERK5 = molecular target: T1, ERK5 (Homo sapiens, UniProt Q13164); assay: Probe-based (AX9989 acyl phosphate ATP probe) kinase profiling in Jurkat lysate: ERK5; settings: for IC50: Jurkat lysate; for inhibition at 10 µM: screening concentration 10 μM
T1 construct: screened for activity against several kinases in Jurkat cells; endogenous in cells; host or cells: Jurkat cell lysate
Protocol: (§1) In this example, potency of the compounds as ERK5 inhibitors was assessed, and the compounds were screened for activity against several kinases in Jurkat cells.
(§2) Jurkat cell pellets were resuspended in four volumes of lysis buffer (50 mM HEPES pH 7.5, 150 mM NaCl, 0.1% Triton-X-100, 1% v/v phosphatase, inhibitor cocktail II [EMD/Calbiochem, #524625]), sonicated using a tip, sonicator, and Dounce homogenized. Lysate was cleared by centrifugation, at 16,000 g for 15 min., was gel filtered (BioRad 10DG) and MnCl2 was then added to a final concentration of 20 mM before treatment with the test compound and probe labeling. […] All compound treatments were performed at room temperature.
(§3) Acyl phosphate ATP probe (AX9989) labeling reactions were performed at room temperature with a final probe concentration of 5 μM after a 15 min pre-incubation of lysate with a test compound. All reactions were performed in duplicate, using 445 μl/sample at 5 mg/ml. Probe-labeled lysates were denatured and reduced (6 M urea, 10 mM DTT, 65° C., 15 min), alkylated (40 mM iodoacetamide, 37° C., 30 min, and gel filtered (Sephadex G25) into 10 mM ammonium bicarbonate, 2 M urea, 5 mM methionine. The desalted protein mixture was digested with trypsin (0.015 mg/ml) for 1 hr at 37° C., and desthiobiotinylated peptides were captured using a […] high-capacity streptavidin resin (Thermo Scientific). Captured peptides were then washed extensively using 150 μl/wash with three different wash buffers: (A) 3 times with 1% triton, 0.5% tergitol, 1 mM EDTA in PBS; (B) 18 times with PBS; and (C) 8 times with HPLC grade water. Peptides were eluted from the streptavidin beads using two 35-μL washes of a 50% CH3CN/water mixture containing 0.1% TFA at room temperature.
(§4) Kinase active site peptides were identified and quantified using LC/MS. Percent inhibition was calculated as the normalized decrease in the ESI-MS fragment intensities of probe-labeled peptides in samples incubated with the test compound compared to those without.
ERK5 IC50 values were calculated from the percent inhibition and the screening concentration.

AMPKa1 or AMPKa2 = assay: Probe-based (AX9989) kinase profiling in Jurkat lysate: AMPKa1 or AMPKa2
Protocol: as §1, §2, §3, §4

ACK = molecular target: T2, ACK (Homo sapiens, UniProt Q07912); assay: Probe-based (AX9989) kinase profiling in Jurkat lysate: ACK; settings: for inhibition at 10 µM: screening concentration 10 μM
T2 construct: screened for activity against several kinases in Jurkat cells; endogenous in cells; host or cells: Jurkat cell lysate
Protocol: as §1, §2, §3, §4

ABL or ARG = assay: Probe-based (AX9989) kinase profiling in Jurkat lysate: ABL or ARG
Protocol: as §1, §2, §3, §4

AurA = molecular target: T3, AurA (Homo sapiens, UniProt O14965); assay: Probe-based (AX9989) kinase profiling in Jurkat lysate: AurA; settings: for inhibition at 10 µM: screening concentration 10 μM
T3 construct: screened for activity against several kinases in Jurkat cells; endogenous in cells; host or cells: Jurkat cell lysate
T3 sequence (O14965 1-403): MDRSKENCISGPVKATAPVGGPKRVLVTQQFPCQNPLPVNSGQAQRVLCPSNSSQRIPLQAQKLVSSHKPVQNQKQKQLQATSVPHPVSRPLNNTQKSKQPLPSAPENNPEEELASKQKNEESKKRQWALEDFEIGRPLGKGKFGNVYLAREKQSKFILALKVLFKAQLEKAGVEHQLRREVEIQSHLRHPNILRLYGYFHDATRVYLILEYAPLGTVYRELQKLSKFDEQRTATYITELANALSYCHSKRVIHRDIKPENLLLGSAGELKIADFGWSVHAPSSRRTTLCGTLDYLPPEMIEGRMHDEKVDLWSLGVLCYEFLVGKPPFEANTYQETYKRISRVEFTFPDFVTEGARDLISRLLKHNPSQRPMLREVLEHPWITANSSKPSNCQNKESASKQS
Protocol: as §1, §2, §3, §4

AurB or AurC = assay: Probe-based (AX9989) kinase profiling in Jurkat lysate: AurB or AurC
Protocol: as §1, §2, §3, §4

TAO2 = molecular target: T4, TAO2 (Homo sapiens, UniProt Q9UL54); assay: Probe-based (AX9989) kinase profiling in Jurkat lysate: TAO2; settings: for inhibition at 10 µM: screening concentration 10 μM
T4 construct: screened for activity against several kinases in Jurkat cells; endogenous in cells; host or cells: Jurkat cell lysate
T4 sequence (Q9UL54 1-1235): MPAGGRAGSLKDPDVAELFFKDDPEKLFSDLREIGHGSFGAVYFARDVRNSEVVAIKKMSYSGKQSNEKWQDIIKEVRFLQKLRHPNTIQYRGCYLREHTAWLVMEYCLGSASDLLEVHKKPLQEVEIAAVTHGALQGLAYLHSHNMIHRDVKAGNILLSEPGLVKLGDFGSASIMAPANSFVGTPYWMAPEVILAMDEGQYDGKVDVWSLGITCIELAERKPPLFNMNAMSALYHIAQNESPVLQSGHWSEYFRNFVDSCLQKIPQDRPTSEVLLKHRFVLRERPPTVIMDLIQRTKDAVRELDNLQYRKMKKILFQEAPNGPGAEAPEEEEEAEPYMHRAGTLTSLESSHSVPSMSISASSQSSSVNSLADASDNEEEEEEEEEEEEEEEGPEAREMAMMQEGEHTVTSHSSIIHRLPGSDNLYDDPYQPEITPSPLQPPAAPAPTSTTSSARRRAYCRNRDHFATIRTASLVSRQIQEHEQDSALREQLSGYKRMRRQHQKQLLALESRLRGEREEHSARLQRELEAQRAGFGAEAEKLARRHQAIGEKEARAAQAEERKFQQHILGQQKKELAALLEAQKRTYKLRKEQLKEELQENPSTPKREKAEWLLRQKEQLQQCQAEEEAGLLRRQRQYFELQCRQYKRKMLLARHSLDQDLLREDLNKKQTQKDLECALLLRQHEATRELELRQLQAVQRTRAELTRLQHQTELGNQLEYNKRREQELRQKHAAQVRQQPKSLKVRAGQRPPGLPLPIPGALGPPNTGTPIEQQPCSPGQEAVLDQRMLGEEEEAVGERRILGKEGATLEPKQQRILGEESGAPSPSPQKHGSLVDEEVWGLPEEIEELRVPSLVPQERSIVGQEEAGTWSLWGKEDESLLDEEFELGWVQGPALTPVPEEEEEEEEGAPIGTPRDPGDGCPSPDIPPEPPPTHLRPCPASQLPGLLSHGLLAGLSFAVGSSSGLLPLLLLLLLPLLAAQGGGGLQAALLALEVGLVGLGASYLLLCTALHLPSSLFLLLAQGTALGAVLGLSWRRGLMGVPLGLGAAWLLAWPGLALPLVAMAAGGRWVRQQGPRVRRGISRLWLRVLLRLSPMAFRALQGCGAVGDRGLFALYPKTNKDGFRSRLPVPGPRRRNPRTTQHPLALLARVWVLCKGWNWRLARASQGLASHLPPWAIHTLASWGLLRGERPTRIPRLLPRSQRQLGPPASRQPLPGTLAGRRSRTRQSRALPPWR
Protocol: as §1, §2, §3, §4

JAK1 = molecular target: T5, JAK1 (Homo sapiens, UniProt P23458); assay: Probe-based (AX9989) kinase profiling in Jurkat lysate: JAK1; settings: for inhibition at 10 µM: screening concentration 10 μM
T5 construct: screened for activity against several kinases in Jurkat cells; endogenous in cells; host or cells: Jurkat cell lysate
Protocol: as §1, §2, §3, §4

[1] = calculated from percent inhibition and screening concentration, AX9989 probe
[2] = read-out: ERK5 Inhibition % at indicated screening concentration
[3] = read-out: ACK Inhibition % at indicated screening concentration
[4] = read-out: AurA Inhibition % at indicated screening concentration
[5] = read-out: TAO2 Inhibition % at indicated screening concentration
[6] = read-out: JAK1 Inhibition % at indicated screening concentration

T2 sequence (Q07912 whole entry): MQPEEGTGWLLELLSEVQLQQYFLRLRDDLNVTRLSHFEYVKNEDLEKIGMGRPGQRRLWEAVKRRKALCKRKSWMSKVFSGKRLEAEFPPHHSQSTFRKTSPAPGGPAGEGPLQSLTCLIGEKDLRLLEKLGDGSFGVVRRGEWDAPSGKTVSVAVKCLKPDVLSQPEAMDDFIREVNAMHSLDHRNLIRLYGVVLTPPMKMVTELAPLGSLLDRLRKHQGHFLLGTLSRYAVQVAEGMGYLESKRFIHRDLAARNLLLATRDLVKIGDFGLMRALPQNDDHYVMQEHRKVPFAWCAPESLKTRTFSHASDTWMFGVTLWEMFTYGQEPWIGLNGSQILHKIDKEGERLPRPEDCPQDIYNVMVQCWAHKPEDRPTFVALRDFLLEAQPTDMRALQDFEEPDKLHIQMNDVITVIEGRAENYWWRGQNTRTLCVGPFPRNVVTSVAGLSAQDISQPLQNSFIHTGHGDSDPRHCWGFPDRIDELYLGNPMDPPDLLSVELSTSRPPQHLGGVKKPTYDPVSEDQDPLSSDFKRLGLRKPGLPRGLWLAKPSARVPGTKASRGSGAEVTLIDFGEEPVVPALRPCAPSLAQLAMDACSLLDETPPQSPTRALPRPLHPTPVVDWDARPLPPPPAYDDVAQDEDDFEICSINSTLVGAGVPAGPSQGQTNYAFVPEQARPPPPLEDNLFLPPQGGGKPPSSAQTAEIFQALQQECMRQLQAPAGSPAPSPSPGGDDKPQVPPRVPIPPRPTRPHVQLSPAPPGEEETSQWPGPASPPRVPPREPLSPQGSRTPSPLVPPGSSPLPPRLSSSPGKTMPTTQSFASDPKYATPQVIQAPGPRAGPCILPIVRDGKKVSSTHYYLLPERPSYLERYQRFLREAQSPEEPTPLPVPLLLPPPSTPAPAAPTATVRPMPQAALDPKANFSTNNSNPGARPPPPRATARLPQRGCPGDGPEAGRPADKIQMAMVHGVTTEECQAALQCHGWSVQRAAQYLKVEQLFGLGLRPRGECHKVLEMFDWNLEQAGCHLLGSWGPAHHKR
T1 sequence (Q13164 whole entry): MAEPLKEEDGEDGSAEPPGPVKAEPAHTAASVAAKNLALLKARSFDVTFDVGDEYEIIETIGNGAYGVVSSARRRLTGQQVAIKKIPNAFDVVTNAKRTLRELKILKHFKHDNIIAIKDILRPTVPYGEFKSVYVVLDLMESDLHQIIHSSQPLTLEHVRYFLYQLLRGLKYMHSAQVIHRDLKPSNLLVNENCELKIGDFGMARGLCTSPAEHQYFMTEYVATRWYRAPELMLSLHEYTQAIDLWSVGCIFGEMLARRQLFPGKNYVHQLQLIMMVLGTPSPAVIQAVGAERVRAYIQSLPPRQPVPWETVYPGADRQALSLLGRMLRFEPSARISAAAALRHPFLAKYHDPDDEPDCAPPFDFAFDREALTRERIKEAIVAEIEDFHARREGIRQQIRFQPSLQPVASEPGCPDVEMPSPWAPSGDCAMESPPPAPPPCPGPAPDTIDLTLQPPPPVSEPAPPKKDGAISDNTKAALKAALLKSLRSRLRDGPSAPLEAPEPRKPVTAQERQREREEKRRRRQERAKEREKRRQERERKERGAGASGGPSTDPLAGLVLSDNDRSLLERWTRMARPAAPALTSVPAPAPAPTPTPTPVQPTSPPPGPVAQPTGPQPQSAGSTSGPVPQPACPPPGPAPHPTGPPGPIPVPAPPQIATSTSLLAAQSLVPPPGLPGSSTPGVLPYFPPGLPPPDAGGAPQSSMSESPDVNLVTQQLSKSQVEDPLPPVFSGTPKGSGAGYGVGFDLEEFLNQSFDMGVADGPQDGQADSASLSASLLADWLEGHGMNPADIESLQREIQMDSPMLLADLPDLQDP
T5 sequence (P23458 whole entry): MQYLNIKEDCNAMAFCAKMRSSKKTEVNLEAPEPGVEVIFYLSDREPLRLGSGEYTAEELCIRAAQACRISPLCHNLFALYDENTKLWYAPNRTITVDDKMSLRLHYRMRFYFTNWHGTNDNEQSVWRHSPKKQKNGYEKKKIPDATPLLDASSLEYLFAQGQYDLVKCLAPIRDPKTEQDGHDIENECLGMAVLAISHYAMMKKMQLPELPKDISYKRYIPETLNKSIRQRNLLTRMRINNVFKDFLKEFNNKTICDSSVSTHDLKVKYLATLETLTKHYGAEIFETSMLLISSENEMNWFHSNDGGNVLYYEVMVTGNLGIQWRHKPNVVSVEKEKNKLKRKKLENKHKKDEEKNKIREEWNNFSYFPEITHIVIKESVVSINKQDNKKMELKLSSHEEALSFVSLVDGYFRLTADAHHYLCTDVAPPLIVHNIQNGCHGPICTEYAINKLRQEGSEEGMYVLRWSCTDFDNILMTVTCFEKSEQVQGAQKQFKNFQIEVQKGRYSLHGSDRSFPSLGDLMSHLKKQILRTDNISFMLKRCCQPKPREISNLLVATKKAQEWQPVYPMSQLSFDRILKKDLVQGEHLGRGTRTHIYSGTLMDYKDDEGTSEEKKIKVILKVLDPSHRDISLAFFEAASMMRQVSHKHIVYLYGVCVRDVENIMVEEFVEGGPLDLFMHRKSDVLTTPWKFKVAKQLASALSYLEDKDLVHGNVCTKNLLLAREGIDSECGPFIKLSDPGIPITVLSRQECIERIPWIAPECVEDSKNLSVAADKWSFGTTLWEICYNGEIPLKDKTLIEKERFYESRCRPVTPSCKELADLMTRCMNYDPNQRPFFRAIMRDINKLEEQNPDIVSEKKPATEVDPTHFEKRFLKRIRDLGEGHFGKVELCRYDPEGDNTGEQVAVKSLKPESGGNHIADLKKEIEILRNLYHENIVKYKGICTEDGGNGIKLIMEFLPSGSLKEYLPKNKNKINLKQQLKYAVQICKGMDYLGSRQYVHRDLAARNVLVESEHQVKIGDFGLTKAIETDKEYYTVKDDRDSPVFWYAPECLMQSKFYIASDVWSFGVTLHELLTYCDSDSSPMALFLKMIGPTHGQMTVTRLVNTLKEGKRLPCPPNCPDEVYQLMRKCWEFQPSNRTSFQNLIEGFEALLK

| SMILES | IC50 (ERK5; [1]) | inhibition at 10 µM (ERK5; [2]) | AMPKa1 or AMPKa2 Inhibition % at indicated screening concentration (AMPKa1 or AMPKa2; screening concentration 10 μM) | inhibition at 10 µM (ACK; [3]) | ABL or ARG Inhibition % at indicated screening concentration (ABL or ARG; screening concentration 10 μM) | inhibition at 10 µM (AurA; [4]) | AurB or AurC Inhibition % at indicated screening concentration (AurB or AurC; screening concentration 10 μM) | inhibition at 10 µM (TAO2; [5]) | inhibition at 10 µM (JAK1; [6]) | other results |
| --- | --- | --- | --- | --- | --- | --- | --- | --- | --- | --- |
| CN1C(=O)c2ccccc2N(S(C)(=O)=O)c2cc(N[C@H]3CC[C@H](O)CC3)ncc21 [Compound T86, 3-(((1r,4r)-4-hydroxycyclohexyl)amino)-11-methyl-5-(methylsulfonyl)-5H-benzo[e]pyrido[3,4-b][1,4]diazepin-10(11H)-one] | > 500 nM |  |  |  |  |  |  |  |  | inhibition at 1 µM (ERK5; screening concentration 1 μM, read-out: ERK5 Inhibition % at indicated screening concentration): 35 to 50%; AMPKa1 or AMPKa2 Inhibition % at indicated screening concentration (AMPKa1 or AMPKa2; screening concentration 1 μM): E (E is ≦35%); inhibition at 1 µM (ACK; screening concentration 1 μM, read-out: ACK Inhibition % at indicated screening concentration): ≤ 35%; ABL or ARG Inhibition % at indicated screening concentration (ABL or ARG; screening concentration 1 μM): E (E is ≦35%); inhibition at 1 µM (AurA; screening concentration 1 μM, read-out: AurA Inhibition % at indicated screening concentration): ≤ 35%; AurB or AurC Inhibition % at indicated screening concentration (AurB or AurC; screening concentration 1 μM): E (E is ≦35%); inhibition at 1 µM (TAO2; screening concentration 1 μM, read-out: TAO2 Inhibition % at indicated screening concentration): ≤ 35%; inhibition at 1 µM (JAK1; screening concentration 1 μM, read-out: JAK1 Inhibition % at indicated screening concentration): ≤ 35% |
| COC(=O)[C@H]1CC[C@H](Nc2cc3c(cn2)N(C)C(=O)c2ccccc2N3C)CC1 [Compound 81] |  |  |  |  |  |  |  |  |  | IC50 (ERK5; calculated from percent inhibition of AX9989 labeling and the screening concentration): > 500 nM; inhibition at 1 µM (ERK5; screening concentration 1.0 μM, read-out: Kinase inhibition % at indicated screening concentration: ERK5): 50 to 75%; Kinase inhibition % at indicated screening concentration: AMPKa1 or AMPKa2 (AMPKa1 or AMPKa2; screening concentration 1.0 μM): E (E is ≦35%); inhibition at 1 µM (ACK; screening concentration 1.0 μM, read-out: Kinase inhibition % at indicated screening concentration: ACK): ≤ 35%; Kinase inhibition % at indicated screening concentration: ABL or ARG (ABL or ARG; screening concentration 1.0 μM): E (E is ≦35%); inhibition at 1 µM (AurA; screening concentration 1.0 μM, read-out: Kinase inhibition % at indicated screening concentration: AurA): ≤ 35%; Kinase inhibition % at indicated screening concentration: AurB or AurC (AurB or AurC; screening concentration 1.0 μM): E (E is ≦35%); inhibition at 1 µM (TAO2; screening concentration 1.0 μM, read-out: Kinase inhibition % at indicated screening concentration: TAO2): ≤ 35%; inhibition at 1 µM (JAK1; screening concentration 1.0 μM, read-out: Kinase inhibition % at indicated screening concentration: JAK1): ≤ 35% |
| CCOc1cc(C(=O)O)ccc1Nc1cc2c(cn1)N(C)S(=O)(=O)c1ccccc1N2C [Compound T1] | > 500 nM | ≤ 35% | E (E is ≦35%) | ≤ 35% | E (E is ≦35%) | ≤ 35% | E (E is ≦35%) | ≤ 35% | ≤ 35% |  |
| CCOc1cc(C(=O)N2CCOCC2)ccc1Nc1cc2c(cn1)N(C)C(=O)c1ccccc1S2(=O)=O [Compound T84] | > 500 nM | 75 to 90% | E (E is ≦35%) | ≤ 35% | E (E is ≦35%) | ≤ 35% | E (E is ≦35%) | ≤ 35% | ≤ 35% |  |
